{
  "source": "paper PMC9124866",
  "about": "“Structure-Activity Relationships of Dopamine Transporter Pharmacological Chaperones” (Frontiers in Cellular Neuroscience, 2022)",
  "key": {"[1]": {"biological_target": "T1, WT DAT (YFP-HA-DAT) (Homo sapiens, UniProt Q01959)", "T1 construct": "expressed in transfected cells; host or cells: HEK293", "assay": "Western blot of mature WT DAT protein levels", "type": "cell-based", "conditions": "overnight 100 μM", "protocol": "Cells (1 × 10^6 cells/well) were seeded onto a 6-well plate and incubated for 24 h. Cells were then treated with drugs and incubated for 16 h. After the incubation period, cells were lysed in RIPA buffer supplemented with protease inhibitors (working concentrations: pepstatin A, 5 μg/mL; leupeptin, 10 μg/mL; aprotinin, 1.5 μg/mL; benzamidine, 0.1 μg/mL; PMSF, 0.1 mM) on ice. At 4°C, cell lysates were gently shaken for 15 min followed by centrifugation at 15,000 rpm for 15 min to pellet debris. The Pierce BCA protein assay kit (Thermo Fisher Scientific, Canada) was used to determine the protein concentration of the supernatant. To reach a concentration of 40 μg of protein per 20 μL, samples were diluted in fresh RIPA buffer with 12.5% Laemmli sample buffer and 2.5% β-Mercaptoethanol prior to being heated to 55°C. The protein was then loaded on a 7.5 or 10% SDS-PAGE gel and run at 100 V for approximately an hour or until the dye front reached the bottom of the gel. Next, protein was transferred to a PVDF membrane at 22 V for 16 h or 100 V for 1 h. Blots were blocked with LI-COR blocking buffer for 1 h and incubated for 1 h at room temperature with rabbit anti-GFP (1:1,000 dilution; Life Technologies, cat#A11122). After washing three times with TBST, blots were incubated with goat anti-rabbit IRDye-680RD secondary antibody (1:15,000; LI-COR, cat#926-68071). As a loading control, blots were incubated with mouse anti-GAPDH (1:5,000, Sigma-Aldrich, Canada, cat#G8795) prior to secondary antibody goat anti-mouse IRDye-800GR (1:5,000 dilution, Rockland, Limerick, PA, cat#610-132-007). All antibodies were diluted in LI-COR blocking buffer. Additionally, REVERT total protein staining (LI-COR, Lincoln, NE) was used as a loading control. […] Mature, fully glycosylated DAT (mDAT = 110 kDa) and immature, ER-resident DAT (iDAT = 75 kDa) were visualized using the Odyssey Imaging System (LI-COR, Lincoln, NE) and Image Studio Version 5.2 software (Supplementary Figure 1).\nWe next assessed whether drugs that increase DAT surface expression also increase total protein levels of DAT. Cells expressing YFP-HA-DAT were incubated with select test compounds and DAT protein levels were examined by western blot. The effects of the compounds were assessed on WT DAT and K590A DAT. The K590A mutant is a well-characterized ER-retained, trafficking-deficient DAT mutant ([Miranda et al., 2004]) that can be rescued by pharmacological chaperones ([Beerepoot et al., 2016]).\nFIGURE 5 Effect of noribogaine, tetrahydroharmine, PAL-594, bicifadine, and RTI-20 on WT and K590A DAT expression. […] (B) Quantification of WT mDAT protein levels. […] (D) Quantification of K590A mDAT protein levels. […]"}, "[2]": {"biological_target": "T2, DAT (Homo sapiens, UniProt Q01959)", "T2 construct": "expressed in transfected cells", "T2 sequence (Q01959 whole entry)": "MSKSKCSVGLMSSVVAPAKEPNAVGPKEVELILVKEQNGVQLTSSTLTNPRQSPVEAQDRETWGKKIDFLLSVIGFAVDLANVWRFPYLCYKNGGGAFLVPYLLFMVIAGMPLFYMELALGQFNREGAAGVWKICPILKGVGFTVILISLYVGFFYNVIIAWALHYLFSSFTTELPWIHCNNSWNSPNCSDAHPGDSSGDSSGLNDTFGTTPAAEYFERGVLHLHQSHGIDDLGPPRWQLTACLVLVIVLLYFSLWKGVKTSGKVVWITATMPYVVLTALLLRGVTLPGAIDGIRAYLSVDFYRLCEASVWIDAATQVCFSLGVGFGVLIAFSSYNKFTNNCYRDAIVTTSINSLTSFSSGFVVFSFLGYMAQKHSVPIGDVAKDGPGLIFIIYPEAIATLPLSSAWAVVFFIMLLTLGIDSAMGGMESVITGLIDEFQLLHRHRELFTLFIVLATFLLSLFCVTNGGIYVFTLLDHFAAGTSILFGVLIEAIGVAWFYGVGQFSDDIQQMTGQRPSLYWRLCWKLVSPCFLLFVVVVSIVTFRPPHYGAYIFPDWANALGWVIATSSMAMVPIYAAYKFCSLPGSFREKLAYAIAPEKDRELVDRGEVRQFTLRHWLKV", "assay": "Dopamine uptake inhibition dose response of hit compounds (Figure 6)", "type": "cell-based", "conditions": "doses 1 nM to 100 μM, normalized to vehicle", "protocol": "Dopamine uptake inhibition was conducted using the Neurotransmitter Transporter Uptake Assay Kit (Molecular Devices, prod#R8173). Cells (1 × 10^5/well) were seeded into 96-well plates and incubated for 24 h. The cells were subjected to overnight drug treatment. The following day, wells were washed and incubated for 30 min with a mixture of 1X Hank’s Balanced Salt Solution (HBSS) and 0.1% Bovine Serum Albumin (BSA) Buffer. Dopamine uptake inhibitors were added during the incubation period. Following the incubation, the fluorescent dye was added, and the plate was immediately transferred to the bottom-read fluorescence microplate reader (Spectramax M3, Molecular Devices) for kinetic read-mode. The assay reads the amount of fluorescent activity which increases as fluorescent dye molecules are transported into the cells by the DAT. The read-out for this assay is the slope which equals the fluorescent measurements/time, ultimately denoting the uptake rate.\nData analysis was performed using GraphPad Prism (GraphPad Software, La Jolla, CA). Linear regression analysis was performed on βLAC time points to determine the slope, thus the rate of reaction, for comparison. Furthermore, the slope was also used to determine the degree of dopamine uptake in the dopamine uptake assays. […]"}},
  "data": [
    {"smiles": "CCC1CC2CC3c4[nH]c5ccc(O)cc5c4CCN(C2)C13", "note": "(centres unmarked) [Noribogaine, reference compound]", "values": [
      {"measurement": "mature WT DAT (mDAT) protein levels", "setting": "[1]", "result": "significantly increase"},
      {"measurement": "maximal dopamine uptake inhibition", "setting": "[2]", "result": 76, "unit": "%"}
    ]}
  ]
}
